Source: patent US8729133B2, “Method for treating cancer” (Cornell University, priority 2006, dated 2014)

Key:
[1] = test system: brain metastases; test: Randomized study: whole brain radiotherapy with or without oral L-Arginine hydrochloride in patients with unresectable brain metastases (response, survival); assay type: in vivo, human
Description: (§1) L-Arginine hydrochloride was orally administered five times a week, Monday to Friday, during the radiation therapy (RT) course at a dose of about 10 grams dissolved/mixed with about 100 ml of water and administered to a patient/host from about 15-55 to about 20-65 minutes before each fraction of RT. Radiation therapy was administered to patients using techniques known to one skilled in the art of treating cancer patients. After administering L-Arginine hydrochloride to a patient as discussed above, change in lactate levels in the tumor cells was monitored by localized ^1H NMR spectroscopy and compared to those who received placebo.
Patients with imagenologically proven brain metastases and histologically proven primary or metastatic cancer were eligible for the study. The eligibility criteria included the following: RPA-RTOG class II, measurable brain lesion/s by contrast-enhanced CT or MRI, absolute granulocyte count >2000/mm^3, hemoglobin […] (patients with lower levels were transfused), normal renal (serum creatinine <1.5 mg/dL and 24-h creatinine clearance >60 mL/min) and hepatic functions (aspartate aminotransferase and alanine aminotransferase <2.5 times the upper limit of normal) and no prior treatment for brain metastases. A neurosurgeon examined all eligible patients and their complimentary studies to determine whether their metastases were resectable. Eligible patients with unresectable metastases were randomized.
The present study was performed in accordance with the ethical standards of the Helsinki Declaration. Within two weeks after the diagnosis of brain metastases, eligible patients were randomly assigned to receive whole brain radiotherapy alone (the control group) or L-Arginine monochlorohydrate (L-Arginine Hydrochloride, L-A-HCl) and whole brain radiotherapy. L-Arginine was orally administered, once a day Monday to Friday, during the radiation therapy (RT) course at a dose of about 10 grams, immediately reconstituted with 100 ml of water and given about 55 to 65 minutes before each fraction of RT.
During RT, all patients were irradiated with ^60Co beams. The whole-brain, of all the individuals enrolled in the study, was treated by two lateral fields to a total dose of 32 Gy in 20 fractions of 1.6 Gy each two times a day with a 6 hours interval between treatments (10 days), followed by a 22.4 Gy boost over the evident lesions with the same fractionation schedule (7 days). The spinal cord dose was limited to 40 Gy.
The baseline evaluation included a complete history and physical examination, brain contrast-enhanced CT scans and/or MRI scans, chest radiographs, blood counts, blood chemistry and electrocardiography. A Mini Mental Status Exam (MMSE) was performed for screening intellectual impairment. During the treatment, patients were to be seen three times a week, then weekly for up to one month after finishing radiotherapy, and then monthly until the patient died. All patients were followed up, by the radiation and medical oncology research physicians, without further treatment.
The following criteria defined radiological response and progression. Complete response was defined as a disappearance of all brain lesions seen on contrast-enhanced CT or MRI scans for at least 1 month. Partial response required at least a 50% decrease in brain lesions for at least 1 month. Stable disease was defined as any brain lesion with shrinkage less than 50% or growth less than 25%. Disease progression was defined as any brain lesion in the brain that enlarged more than 25% or any new brain lesion. For measurable disease, standard bi-perpendicular diameters of the two-dimensional tumor image at maximum dimension were applied.
The following criteria defined symptomatic response and progression. Complete response was defined as disappearance of all neurological-related signs or symptoms seen during a physical exam for at least 1 month, with stable or decreasing steroid dose. […]

[2] = test system: lactate levels in brain metastases tumors; test: Tumor lactate determination by localized 1H MR spectroscopy before and after oral L-Arginine; assay type: in vivo, human
Description: as §1
Single-voxel MR spectroscopic data were obtained by using a double-SE point-resolved spectroscopy (PRESS) sequence with one-pulse water signal suppression mainly from metabolically active fleshy parts (contrast-enhanced areas) of the lesions, while avoiding contamination from scalp fat. Appropriate automatic shimming and water suppression were achieved by using 4-8-Hz line width, 1-kHz spectral width, and the automated software developed by the manufacturer. Spectroscopic data from cubic volumes of 1.5×1.5×1.5-2×2×3 cm were obtained by using the PRESS sequence with 1500/135 ms (TR/TE), 128-256 averages, 1024 data points, and 4000-Hz spectrum width. In most examinations, a voxel size of 2×2×2 cm3 was employed.
The time domain signal intensity was apodized and processed to remove the residual water signal. Post-processing of the spectroscopic data consisted of frequency shift and phase and linear baseline corrections after Fourier transformation. […] Lactate (Lac) peak was calculated at 1.35 ppm (an inverted β-methyl doublet). […] Lactate values were calculated automatically from the area under the peak by using the standard commercial software program provided by the manufacturer.
L-A-HCl was administered (as stated) to 30 patients with unresectable brain metastases. […] Patients were assessed by brain NMR and/or TC (to asses tumor response) and proton magnetic spectroscopy (to determine the metabolic profile of tumors). […]

[3] = 30 patients with unresectable brain metastases vs 30 placebo

Which “survival compared to placebo” value [1, 3] does the source give for `Cl.N=C(N)NCCC[C@H](N)C(=O)O` [L-Arginine, S(+)-2-Amino-5-[(aminoiminomethyl)amino]pentanoic acid monohydrochloride] here?
Its value is “higher”.

What about the “tumoral response rates compared to placebo” value [1, 3] of the same compound?
Its value is “higher”.

What about the “Overall Response: Complete” value ([1]; RT-Arginine n = 22) of the same compound?
The value was 6 number of patients.

What about the “Overall Response: Partial” value ([1]; RT-Arginine n = 22) of the same compound?
The value was 13 number of patients.

What about the “Overall Response: Stable Disease” value ([1]; RT-Arginine n = 22) of the same compound?
Its value is 2 (9%) number of patients (%).

And the “Radiologic Response: Complete” value ([1]; RT-Arginine n = 22)?
Its value is 6 number of patients.

And the “Radiologic Response: Partial” value ([1]; RT-Arginine n = 22)?
The value was 13 number of patients.

What about the “Radiologic Response: Progressive Disease” value ([1]; RT-Arginine n = 22) of the same compound?
The value was 0 number of patients.

What about the “Radiologic Response: Stable Disease” value ([1]; RT-Arginine n = 22) of the same compound?
Its value is 2 (9%) number of patients (%).

What about the “Symptomatic Response: Complete” value ([1]; RT-Arginine n = 22) of the same compound?
The value was 20 number of patients.

What about the “Symptomatic Response: Partial” value ([1]; RT-Arginine n = 22) of the same compound?
The value was 1 number of patients.

And the “Symptomatic Response: Progressive Disease” value ([1]; RT-Arginine n = 22)?
Its value is 0 (0%) number of patients (%).

And the “Symptomatic Response: Stable Disease” value ([1]; RT-Arginine n = 22)?
Its value is 1 (5%) number of patients (%).

And the “Overall Response: Total responses” value ([1]; RT-Arginine n = 22, ECOG response guidelines)?
Its value is 18 (81%) number of patients (%).

What about the “Symptomatic Response: Total responses” value ([1]; RT-Arginine n = 22, about 10 grams orally before each RT fraction) of the same compound?
The value was 21 (95%) number of patients (%).

What about the “Radiologic Response: Total responses” value ([1]; RT-Arginine n = 22, contrast-enhanced CT or MRI) of the same compound?
Its value is 18 (81%) number of patients (%).

What about the “Overall Response: Progressive Disease” value ([1]; RT-Arginine n = 22, not assessed counted as progressive) of the same compound?
The value was 1 (5%) number of patients (%).

And the “Radiologic Response: Not assessed” value ([1]; RT-Arginine n = 22, patients without follow-up scan)?
The value was 1 (5%) number of patients (%).

And the median survival time ([1]; patients with brain metastases, about 10 grams L-Arginine orally, Kaplan-Meier (FIG. 1), placebo 2 months)?
Its median survival time is 8 months.

What about the “metabolic pattern of the tumors by spectroscopy” value ([2]; about 10 grams orally, in about 60 minutes) of the same compound?
Its value is “favorably modified”.

What about the “drop of lactate levels in tumors” value ([2]; brain metastases, about 60 minutes after about 10 grams orally, NMR (FIG. 2), placebo about 10%) of the same compound?
Its value is “about 50%”.

And the “lactate peak in tumor NMR spectrum after vs before administration” value ([2]; brain metastasis, about 60 minutes after about 10 grams orally)?
Its value is “decrease”.
